According to the NIST ThermoML archive (doi:10.1021/je0498208):

Assay: xn = mol fraction of the nth substance listed
Conditions: Liquid; for viscosity: 101 kPa; for mass density: 101.3 kPa

O=CN1CCOCC1 [N-formylmorpholine] + O
Conditions | mass density [kg/m3] | viscosity [mPa·s]
298.15 K, x1 = 0.0499 | 1038.7 | 1.45
298.15 K, x1 = 0.1007 | 1067.03 | 2.22
298.15 K, x1 = 0.1976 | 1099.55 | 3.82
298.15 K, x1 = 0.3006 | 1117.88 | 5.05
298.15 K, x1 = 0.3917 | 1127.34 | 5.95
298.15 K, x1 = 0.5001 | 1134.34 | 6.53
298.15 K, x1 = 0.5834 | 1137.94 | 6.81
298.15 K, x1 = 0.6969 | 1141.28 | 7.25
298.15 K, x1 = 0.7942 | 1143.43 | 7.27
298.15 K, x1 = 0.9047 | 1145.19 | 7.53
298.15 K, x1 = 0.9493 | 1145.97 | 7.7
298.15 K, x1 = 1 | 1146.62 | 7.87
303.15 K, x1 = 0.0499 | 1036.24 | 1.29
303.15 K, x1 = 0.1007 | 1063.95 | 1.85
303.15 K, x1 = 0.1976 | 1095.78 | 3.33
303.15 K, x1 = 0.3006 | 1113.82 | 4.31
303.15 K, x1 = 0.3917 | 1123.11 | 5.04
303.15 K, x1 = 0.5001 | 1130.03 | 5.54
303.15 K, x1 = 0.5834 | 1133.6 | 5.79
303.15 K, x1 = 0.6969 | 1136.91 | 6.02
303.15 K, x1 = 0.7942 | 1139.05 | 6.21
303.15 K, x1 = 0.9047 | 1140.81 | 6.46
303.15 K, x1 = 0.9493 | 1141.6 | 6.62
303.15 K, x1 = 1 | 1142.26 | 6.75
313.15 K, x1 = 0.0499 | 1030.93 | 1.038
313.15 K, x1 = 0.1007 | 1057.44 | 1.52
313.15 K, x1 = 0.1976 | 1088.06 | 2.44
313.15 K, x1 = 0.3006 | 1105.52 | 3.23
313.15 K, x1 = 0.3917 | 1114.62 | 3.77
313.15 K, x1 = 0.5001 | 1121.35 | 4.19
313.15 K, x1 = 0.5834 | 1124.87 | 4.33
313.15 K, x1 = 0.6969 | 1128.16 | 4.55
313.15 K, x1 = 0.7942 | 1130.3 | 4.7
313.15 K, x1 = 0.9047 | 1132.07 | 4.9
313.15 K, x1 = 0.9493 | 1132.87 | 5.03
313.15 K, x1 = 1 | 1133.53 | 5.13
323.15 K, x1 = 0.0499 | 1025.15 | 0.854
323.15 K, x1 = 0.1007 | 1050.64 | 1.23
323.15 K, x1 = 0.1976 | 1080.16 | 1.95
323.15 K, x1 = 0.3006 | 1097.1 | 2.5
323.15 K, x1 = 0.3917 | 1105.98 | 2.88
323.15 K, x1 = 0.5001 | 1114.62 | 3.21
323.15 K, x1 = 0.5834 | 1116.08 | 3.35
323.15 K, x1 = 0.6969 | 1119.37 | 3.53
323.15 K, x1 = 0.7942 | 1121.52 | 3.67
323.15 K, x1 = 0.9047 | 1123.33 | 3.86
323.15 K, x1 = 0.9493 | 1124.14 | 4.01
323.15 K, x1 = 1 | 1124.82 | 4.03
333.15 K, x1 = 0.0499 | 1018.01 | 0.715
333.15 K, x1 = 0.1007 | 1043.55 | 1.018
333.15 K, x1 = 0.1976 | 1072.05 | 1.57
333.15 K, x1 = 0.3006 | 1088.55 | 2.1
333.15 K, x1 = 0.3917 | 1097.24 | 2.41
333.15 K, x1 = 0.5001 | 1103.8 | 2.65
333.15 K, x1 = 0.5834 | 1107.26 | 2.73
333.15 K, x1 = 0.6969 | 1110.55 | 2.84
333.15 K, x1 = 0.7942 | 1112.72 | 2.96
333.15 K, x1 = 0.9047 | 1114.57 | 3.2
333.15 K, x1 = 0.9493 | 1115.4 | 3.21
333.15 K, x1 = 1 | 1116.11 | 3.25
343.15 K, x1 = 0.0499 | 1011.38 | 0.67
343.15 K, x1 = 0.1007 | 1036.08 | 0.857
343.15 K, x1 = 0.1976 | 1063.72 | 1.27
343.15 K, x1 = 0.3006 | 1079.83 | 1.8
343.15 K, x1 = 0.3917 | 1088.36 | 2.05
343.15 K, x1 = 0.5001 | 1094.88 | 2.26
343.15 K, x1 = 0.5834 | 1098.33 | 2.33
343.15 K, x1 = 0.6969 | 1101.67 | 2.37
343.15 K, x1 = 0.7942 | 1103.88 | 2.52
343.15 K, x1 = 0.9047 | 1105.79 | 2.67
343.15 K, x1 = 0.9493 | 1106.66 | 2.67
343.15 K, x1 = 1 | 1107.39 | 2.68
